Drawing on PubChem BioAssay (NCI), this text covers GI50 and TGI for 9 compounds.

Test systems include K-562 leukemia; SF-539 CNS; LOX IMVI melanoma; NCI-H522 lung; NCI-H23 lung; HS 578T breast; U251 CNS; OVCAR-5 ovarian; BT-549 breast; SK-MEL-5 melanoma.
Test in all cases: growth of human tumour cells (NCI), 48 h

Each structure is given as a SMILES string.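 Compound exposure: 48 hours, 5 concentrations, 96-well plates. GI50 marks 50% less growth. TGI denotes the concentration required for complete inhibition of growth.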

As to `CSc1ccc2c(c1)C(=O)c1c-2n(CCCN=[N+]=[N-])c(=O)c2cc([N+](=O)[O-])ccc12`, the GI50 was 1.99 µM in the experiment on K-562 leukemia; 1.46 µM in the experiment with SF-539 CNS; 1.22 µM with LOX IMVI melanoma; 6.01 µM in the experiment with NCI-H522 lung; 3.48 µM with NCI-H23 lung; more than 61.1 µM with HS 578T breast. Besides, the GI50 in the experiment with U251 CNS is 1.1 µM; in the experiment on OVCAR-5 ovarian, more than 76.6 µM; with SK-MEL-5 melanoma, 2.56 µM. Besides, the TGI was more than 40.2 µM with K-562 leukemia; more than 100 µM in the experiment on SF-539 CNS; more than 100 µM in the experiment with LOX IMVI melanoma; more than 100 µM with NCI-H522 lung; more than 100 µM in the experiment on NCI-H23 lung; more than 100 µM with HS 578T breast. Besides, the TGI was more than 100 µM in the experiment with U251 CNS, more than 100 µM in the experiment with OVCAR-5 ovarian, more than 100 µM in the experiment on BT-549 breast and 16.4 µM with SK-MEL-5 melanoma.
With `Cn1cc(C2=C(c3cccc(NCC(O)CO)c3)C(=O)NC2=O)c2cc(Cl)ccc21` (centres undefined), the GI50 is 2.19 µM in the experiment with K-562 leukemia; 1.78 µM in the experiment with SF-539 CNS; 3.05 µM with LOX IMVI melanoma; 2.45 µM in the experiment with NCI-H522 lung; 4.64 µM in the experiment with NCI-H23 lung; 0.214 µM in the experiment with HS 578T breast. The GI50 in the experiment on U251 CNS was 2.33 µM; with OVCAR-5 ovarian, 9.63 µM; in the experiment with BT-549 breast, 3.82 µM; with SK-MEL-5 melanoma, 3.32 µM. The TGI is more than 25 µM with K-562 leukemia; 6.9 µM with SF-539 CNS; 15.1 µM in the experiment on LOX IMVI melanoma; 11.4 µM in the experiment with NCI-H522 lung; 13.3 µM in the experiment with NCI-H23 lung; 5.77 µM with HS 578T breast. For the same compound, the TGI in the experiment on U251 CNS is 13.7 µM; with OVCAR-5 ovarian it was more than 20.9 µM; in the experiment with BT-549 breast, 9.3 µM; with SK-MEL-5 melanoma it was 7.14 µM.
For `O=C(Nc1cccc(-n2cc(-c3ccncc3)c(-c3ccc(O)c(Cl)c3)n2)c1)Nc1ccc(Cl)c(C(F)(F)F)c1`, the GI50 in the experiment with K-562 leukemia is 2.44 µM; in the experiment with SF-539 CNS, 1.76 µM; in the experiment with LOX IMVI melanoma, 1.61 µM; in the experiment on NCI-H522 lung, 1.64 µM; with NCI-H23 lung, 2.1 µM; in the experiment on HS 578T breast, 1.3 µM. In addition, the GI50 with U251 CNS is 1.7 µM; in the experiment with OVCAR-5 ovarian, 3.02 µM; with BT-549 breast, 1.82 µM; in the experiment on SK-MEL-5 melanoma, 1.66 µM. Further, the TGI is 9.79 µM in the experiment with K-562 leukemia; 5.99 µM in the experiment with SF-539 CNS; 3.21 µM with LOX IMVI melanoma; 4.16 µM in the experiment with NCI-H522 lung; 6.5 µM with NCI-H23 lung; 6.24 µM in the experiment on HS 578T breast. In addition, the TGI was found to be 8.02 µM in the experiment with U251 CNS, 13.9 µM in the experiment with OVCAR-5 ovarian, 4.28 µM in the experiment on BT-549 breast and 3.07 µM with SK-MEL-5 melanoma.
With `Cn1c2ccccc2c(=S)c2cc(NC(=O)CCCCC(=O)Nc3ccc4c(c3)c(=S)c3ccccc3n4C)ccc21`, the TGI with K-562 leukemia, with SF-539 CNS, with LOX IMVI melanoma, with NCI-H522 lung, in the experiment with NCI-H23 lung and in the experiment on HS 578T breast was more than 100 µM each time. Also, the TGI in the experiment on U251 CNS, in the experiment on OVCAR-5 ovarian, in the experiment on BT-549 breast and in the experiment on SK-MEL-5 melanoma was more than 100 µM in each case.
For `Cc1cc(Cl)ccc1Nc1nc(C(F)(F)F)ccc1C(=O)N/N=C/c1ccc(F)cc1`, the GI50 was 1.89 µM with K-562 leukemia; 1.96 µM in the experiment on SF-539 CNS; 1.34 µM in the experiment with LOX IMVI melanoma; 2.4 µM with NCI-H522 lung; 2.57 µM in the experiment on NCI-H23 lung; 2.23 µM with HS 578T breast. Besides, the GI50 in the experiment with U251 CNS was 1.52 µM; with OVCAR-5 ovarian, 2.45 µM; with BT-549 breast it was 1.06 µM; in the experiment on SK-MEL-5 melanoma, 1.58 µM. The TGI with K-562 leukemia stood at 6.05 µM; with SF-539 CNS, 5.67 µM; in the experiment with LOX IMVI melanoma, 10.6 µM; in the experiment with NCI-H522 lung it was 8.12 µM; in the experiment with NCI-H23 lung, 11.5 µM; with HS 578T breast, 11.7 µM. In addition, the TGI in the experiment on U251 CNS turned out to be 10.6 µM; with OVCAR-5 ovarian it was 15.1 µM; with BT-549 breast, 3.51 µM; with SK-MEL-5 melanoma, 3.13 µM.
Take `COc1ccc(-c2oncc2-c2cc(OC)c3c(c2)OCO3)cc1`: the GI50 is 0.441 µM with K-562 leukemia; 2 µM in the experiment on SF-539 CNS; 4.01 µM in the experiment on LOX IMVI melanoma; 1.44 µM with NCI-H522 lung; 4.94 µM in the experiment on NCI-H23 lung; 2.49 µM in the experiment with HS 578T breast. Moreover, the GI50 in the experiment on U251 CNS is 3.8 µM; in the experiment on OVCAR-5 ovarian, 5.14 µM; with BT-549 breast it was 5.24 µM; with SK-MEL-5 melanoma, 2.84 µM. The TGI was more than 100 µM in the experiment on K-562 leukemia; 5.92 µM in the experiment with SF-539 CNS; more than 60.1 µM with LOX IMVI melanoma; 5.77 µM in the experiment on NCI-H522 lung; more than 100 µM in the experiment with NCI-H23 lung; 21.2 µM in the experiment on HS 578T breast. Also, the TGI with U251 CNS was more than 87.3 µM; in the experiment with OVCAR-5 ovarian it was more than 100 µM; in the experiment on BT-549 breast it was more than 100 µM; with SK-MEL-5 melanoma it was 14.1 µM.
For the compound `CNC(=S)N/N=C(/C)CCC/C(C)=N/NC(=S)NC`, the TGI was more than 100 µM with K-562 leukemia; more than 100 µM in the experiment on SF-539 CNS; 44.2 µM in the experiment on LOX IMVI melanoma; more than 100 µM in the experiment with NCI-H522 lung; more than 100 µM in the experiment with NCI-H23 lung; more than 100 µM in the experiment on HS 578T breast. For the same compound, the TGI with U251 CNS, in the experiment with OVCAR-5 ovarian, in the experiment with BT-549 breast and in the experiment with SK-MEL-5 melanoma was more than 100 µM throughout.
`O=C1/C(=c2\c3ccccc3n3c(=O)c4ccccc4nc23)Nc2ccccc21`: the TGI in the experiment on K-562 leukemia is more than 100 µM; with SF-539 CNS it was more than 100 µM; with LOX IMVI melanoma it was more than 100 µM; in the experiment on NCI-H522 lung, more than 100 µM; with NCI-H23 lung, more than 100 µM; with HS 578T breast it was more than 85.7 µM. For the same compound, the TGI in the experiment with U251 CNS, in the experiment on OVCAR-5 ovarian, with BT-549 breast and in the experiment with SK-MEL-5 melanoma was more than 100 µM in each case.
For the compound `CC(=O)O[C@@H]1CC(=O)O[C@@H]2C[C@@H](CC/C(Cl)=C/C/C=C\1C)O[C@@H]2CO`, the GI50 in the experiment on K-562 leukemia, with SF-539 CNS, with LOX IMVI melanoma, in the experiment on NCI-H522 lung, in the experiment with NCI-H23 lung and in the experiment on HS 578T breast was more than 25 µM in each case. For the same compound, the GI50 in the experiment with U251 CNS was more than 25 µM; in the experiment on OVCAR-5 ovarian, more than 25 µM; in the experiment with BT-549 breast it was 24.5 µM; in the experiment on SK-MEL-5 melanoma, more than 25 µM. Moreover, the TGI with K-562 leukemia, in the experiment with SF-539 CNS, in the experiment on LOX IMVI melanoma, with NCI-H522 lung, in the experiment on NCI-H23 lung and in the experiment with HS 578T breast was more than 25 µM in each case. The TGI in the experiment with U251 CNS, in the experiment with OVCAR-5 ovarian, with BT-549 breast and in the experiment with SK-MEL-5 melanoma was more than 25 µM each time.
